Assay results published in patent US11484591B2, “Chemoprevention using controlled-release formulations of anti-interleukin 6 agents, synthetic vitamin A analogues or metabolites, and estradiol metabolites” (OHIO STATE INNOVATION FOUNDATION, priority 2016, dated 2022).
Entries after “also recorded” stand apart in the source; their conditions may differ.

Key:
ATP binding sites of FAK = ATP binding sites of FAK (Homo sapiens, UniProt Q05397); details: cited from earlier work
JSCC1 cells = assay: Tumorsphere formation and retention of proliferative capacity; assay type: cell-based, human
Method: JSCC1 cells were seeded at density of 5×10^5 cells in Advanced DMEM+5% FBS+1× GlutaMAX Supplement in Ultra-Low Attachment surface T-25 flasks with DMSO control (0.05%) and 5 μM 4-HPR treatment. Cell suspension cultures were treated for 3 days with fresh treatment every 24 h. While control cultures formed tumorspheres by 24 h, 4-HPR treated cellular interactions were limited to small cell aggregates. (Image scale at 100×.)
Following the treatment described in FIG. 4A above, the JSCC1 control and 4-HPR treated cells were returned to standard tissue culture flasks for seven days in 4-HPR free complete medium (Advanced DMEM+5% FBS+1× GlutaMAX Supplement). […] (Image scale 100×.)
5×10^5 JSCC1 cells (tumorsphere-formation competent unlike JSCC2 and JSCC3 cells) were plated in complete medium with either vehicle control (0.01% DMSO) or 5 μM 4-HPR in Corning Ultra-Low attachment tissue culture flasks (Sigma-Aldrich, St. Louis, Mo.) Suspension cultures received fresh medium and treatment q d for 7 days, with daily images capture via the Nikon DS-Ri+NIS Element. After 7 days, cells and medium were harvested, centrifuged, and cells replated in standard culture flasks containing complete medium. Images were obtained daily and cells harvested after 7 days in culture. Cell number (hemocytometer counts) and viability (trypan blue exclusion) were obtained.

STAT3 = STAT3 cytosolic phosphorylation and nuclear translocation, immunoblots of OSCC cell lines; assay type: cell-based, human
Method: FIGS. 2A, 2B, and 2C show the treatment effects of fenretinide (4-HPR, 5 μM), 2-methoxyestradiol (2-ME, 2.5 μM) and the STAT3 inhibitor LY5 (0.5 μM) on STAT3 phosphorylation and nuclear translocation. (A) (JSCC1 cells) (B) (JSCC2 cells) and (C) (JSCC3 cells) were evaluated. Cytosolic and nuclear proteins were harvested from sera deprived JSCC1 and JSCC2 cell lines following 24 h of treatment (5 μM 4-HPR, 2.5 μM 2-ME, or 0.5 μM LY5) or vehicle (0.1% DMSO) control. […] As the JSCC3 cells don't constitutively express pSTAT3, these cells underwent 24 h stimulation in base medium supplemented with 10 ng/mL of IL-6 or 5 ng/mL of TGF-α, with or without 4-HPE, 2-ME or LY5 treatment, followed by harvest. […] (n=3, p<0.05, Wilcoxon matched pairs signed rank test).
Dosing levels were determined by concurrent proliferation and viability studies in conjunction with literature values. The cells in every treatment group were then stimulated for 20 minutes with: vehicle (1 μl ddH2O), 50 ng/ml EGF, 50 ng/ml VEGF, or 50 ng/ml EGF+50 ng/ml VEGF, followed by standard immunoblotting and data normalization relative to GAPDH. […] Immunoblot images were captured (Li-Cor Odyssey imager) and analyzed (Li-Cor Image Studio, Version 4.0) to depict effects on treatment on phosphorylation relative to respective levels of GAPDH. […]

[1] = JSCC1 cells pretreated with 5 μM, 7 days in 4-HPR free complete medium

ATP binding sites of FAK, sequence (Q05397 whole entry): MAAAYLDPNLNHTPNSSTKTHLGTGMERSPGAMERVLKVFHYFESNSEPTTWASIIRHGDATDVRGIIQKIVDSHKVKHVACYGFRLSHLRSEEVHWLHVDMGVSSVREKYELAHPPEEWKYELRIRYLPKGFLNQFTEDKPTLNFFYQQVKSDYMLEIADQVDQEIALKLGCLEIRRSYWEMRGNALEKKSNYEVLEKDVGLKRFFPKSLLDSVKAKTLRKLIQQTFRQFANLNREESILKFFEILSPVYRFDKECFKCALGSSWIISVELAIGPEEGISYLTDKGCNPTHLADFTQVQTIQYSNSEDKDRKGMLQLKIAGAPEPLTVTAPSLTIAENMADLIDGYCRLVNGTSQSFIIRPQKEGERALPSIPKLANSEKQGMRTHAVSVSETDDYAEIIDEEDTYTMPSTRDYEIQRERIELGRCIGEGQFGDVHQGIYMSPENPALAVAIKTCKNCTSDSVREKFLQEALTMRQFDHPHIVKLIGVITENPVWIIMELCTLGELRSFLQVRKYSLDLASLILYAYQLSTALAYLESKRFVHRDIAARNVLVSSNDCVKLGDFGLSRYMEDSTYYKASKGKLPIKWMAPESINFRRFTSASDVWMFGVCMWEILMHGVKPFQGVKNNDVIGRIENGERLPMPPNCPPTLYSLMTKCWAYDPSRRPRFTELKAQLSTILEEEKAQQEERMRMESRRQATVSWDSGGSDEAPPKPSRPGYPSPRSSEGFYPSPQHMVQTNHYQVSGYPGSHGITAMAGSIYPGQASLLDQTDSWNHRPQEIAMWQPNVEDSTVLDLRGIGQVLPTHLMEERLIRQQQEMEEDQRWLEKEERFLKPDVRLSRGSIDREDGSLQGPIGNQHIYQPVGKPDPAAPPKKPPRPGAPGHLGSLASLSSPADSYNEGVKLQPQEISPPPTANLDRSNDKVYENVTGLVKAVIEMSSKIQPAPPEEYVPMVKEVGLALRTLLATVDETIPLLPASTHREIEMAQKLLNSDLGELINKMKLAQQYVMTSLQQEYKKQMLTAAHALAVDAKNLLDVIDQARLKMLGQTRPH

CC1=C(/C=C/C(C)=C/C=C/C(C)=C/C(=O)Nc2ccc(O)cc2)C(C)(C)CCC1 [4-HPR, 4-hydroxy(phenyl)retinamide]
binding to ATP binding site (ATP binding sites of FAK): binds with high affinity | reattachment and viability after re-plating in standard flasks (JSCC1 cells; [1]): failed to reattach; also recorded: failed to reattach and were uniformly non-vital | trypan blue uptake after re-plating (JSCC1 cells; [1]): 100% | tumorsphere formation (JSCC1 cells; JSCC1 cells, 5 μM, low attachment flasks): inhibits tumorsphere formation | anoikis in tumorsphere-competent cells (JSCC1 cells; discussion): induced anoikis | constitutive STAT3 phosphorylation and pSTAT3 nuclear translocation (STAT3; JSCC1 and JSCC2 cells, 5 μM, 24 h): suppressed; also recorded: significantly reduced | suppression of STAT3 activation and nuclear translocation relative to STAT3 inhibitor LY5 (STAT3; JSCC1 cells, 5 μM 4-HPR vs 0.5 μM LY5): appreciably more effectively
